One data set has as its system CHIKV DRDE-07. The data set is described as follows: In vitro screening against CHIKV (CPE inhibition and MTT cell viability). Conditions: for % Cell viability / CPE: Table S1, CHIKV-infected Vero cells; for % Cell viability / Cell Viability: 72 hpi; for % Cell viability: MTT assay; for CPE: arbitrary score of cytopathic effect at >48 hpi; for Cell Viability: CHIKV-infected Vero cells treated at MNTD, MTT, cell control + DMSO = 100%. The class given is cell-based, chikungunya virus.

The subject of another data set is Vero cells. As to the kind of experiment: Cytotoxicity MTT assay in Vero cells (MNTD, CC50). The class given is cell-based, African green monkey.
Data set [1] relates to CHIKV. As to the kind of experiment: Mode of inhibition (time of addition), MTT cell viability. The settings on record: for viability at 300 µM: Chikungunya virus. The class given is cell-based, chikungunya virus.
In data set [2] the test system is CHIKV. The data set is described as follows: Plaque assay, CHIKV. The class given is cell-based, chikungunya virus. Conditions: 300 μM, MOI 0.1.
For data set [3], the system named is CHIKV. As to the kind of experiment: Immunofluorescence assay, CHIKV E2 mAb. The class given is cell-based, chikungunya virus.
For data set [4], the system named is RRV T48 strain. As to the kind of experiment: Plaque assay, RRV. The class given is cell-based, Ross River virus. Conditions: 300 µM; for RRV titer: MOI 0.1; for percent reduction in virus titer: with respect to virus control.
Data set [5] can be described thus: Cytotoxicity MTT assay in Vero cells (MNTD, CC50). The class given is cell-based, African green monkey. Conditions: African green monkey.
Data set [6] concerns CHIKV. As to the kind of experiment: Cytopathic effect inhibition and cell viability dose-response assay. The class given is cell-based, chikungunya virus.
Another data set relates to CHIKV-E2 protein. As to the kind of experiment: Western blot of CHIKV E2 protein. Conditions: 18 hpi, compared to virus control. The class given is cell-based, chikungunya virus.
Data set [7] relates to RRV T48 strain. As to the kind of experiment: Immunofluorescence and MTT cell viability assays, RRV. The class given is cell-based, Ross River virus. The settings on record: 300 µM, 36 hpi.
Setting [8] is: maximum nontoxic dose in Vero cells, MTT.

Values joined by “and” are separate entries in the source; they are usually repeats but may differ in a detail not shown here. Equal entries are not always repeated. Where two headings read alike, the source gives them in different places. A value given as a limit tells only on which side of the number the result lay.

For the compound `N#Cc1ccccc1N1CCCCC1` [DCR140, 2-Piperidin-1-yl-benzonitrile], in the data set with CHIKV DRDE-07, the “% Cell viability” value is 14.97% and the CPE entry is on record as “++++ (>60% (++++))”. In the data set with Vero cells (Table S1, Vero cells), the MNTD was 250 µM.
Consider `N#Cc1c(F)cccc1N1CCCCC1` [DCR141, 2-Fluoro-6-piperidin-1-yl-benzonitrile], for which, in the data set on CHIKV DRDE-07, the “% Cell viability” value was determined as 19.24% and the CPE entry is “++++ (>60% (++++))”. In the data set with Vero cells (Table S1, Vero cells), this compound registered an MNTD of 125 µM.
The matching figures for `CC1CN(c2ccccc2C#N)CC(C)N1` (stereo not shown) [DCR142, 2-(3,5-Dimethyl-piperazin-1-yl)-benzonitrile]: 13.08%, “++++ (>60% (++++))” and 125 µM.
The matching figures for `COc1cccc(N2CCCCC2)c1C#N` [DCR143, 2-Methoxy-6-piperidin-1-yl-benzonitrile]: 17.42%, “++++ (>60% (++++))” and 125 µM.
In the same order, the values of `O=[N+]([O-])c1ccc(N2CCCCC2)c([N+](=O)[O-])c1` [DCR144, 1-(2,4-Dinitro-phenyl)-piperidine] are 25.21%, “++++ (>60% (++++))” and 125 µM.
On to `N#Cc1cc(F)ccc1N1CCCCC1` [DCR145, 5-Fluoro-2-piperidin-1-yl-benzonitrile], for which, in the data set with CHIKV DRDE-07, the “% Cell viability” value stood at 0% and the CPE result is given as “++++ (>60% (++++))”. In the data set on Vero cells (Table S1, Vero cells), this compound came in with an MNTD of 125 µM.
`N#Cc1ccccc1N1CCOCC1` [DCR146, 2-Morpholin-4-yl-benzonitrile]: in the data set with CHIKV DRDE-07, the “% Cell viability” value was -3.98% and the CPE entry was “++++ (>60% (++++))”. Moreover, in the data set with Vero cells (Table S1, Vero cells), the MNTD was found to be 250 µM.
The matching figures for `N#Cc1ccccc1NCc1ccccc1` [DCR147, 2-Benzylamino-benzonitrile]: 17.97%, “++++ (>60% (++++))” and 125 µM.
In the same order, the values of `CC1CN(c2ccc(C#N)c(Cl)c2)CC(C)N1` (stereo not shown) [DCR148, 2-Chloro-4-(3,5-dimethyl-piperazin-1-yl)-benzonitrile] are 14.42%, “++++ (>60% (++++))” and 125 µM.
In the same order, the values of `CC1CN(c2ccc(C(=N)NO)c(Cl)c2)CC(C)N1` (stereo not shown) [DCR149, 2-Chloro-4-(3,5-dimethyl-piperazin-1-yl)-N-hydroxy-benzamidine] are -21.8%, “++++ (>60% (++++))” and 125 µM.
For the compound `N#Cc1ccc(N2CCN(CCO)CC2)cc1N1CCN(CCO)CC1` [DCR150, 2,4-Bis-[4-(2-hydroxy-ethyl)-piperazin-1-yl]-benzonitrile], in the data set on CHIKV DRDE-07, the “% Cell viability” value is on record as 18.09% and the CPE result is given as “++++ (>60% (++++))”. In the data set with Vero cells (Table S1, Vero cells), this compound registered an MNTD of 62.5 µM.
With `Brc1cc2c(c3ncccc13)Oc1ncccc1O2` [DCR 1, 5-bromo-7,12-dioxa-1,11-diaza-benzo[a]anthracene], in the data set with CHIKV DRDE-07, the “Cell Viability” value is reported as 72% and the CPE entry is “++ (50-30% (++))”. In the data set with Vero cells (Table S1, Vero cells), this compound had an MNTD of 50 µM. The compound also showed an MNTD in the data set on Vero cells (setting [8]) of 50 µM.
As to `Brc1cc2c(c3ncccc13)Oc1cc(Br)c3cccnc3c1O2` [DCR 2, 5,12-dibromo-[1,4]dioxino[2,3-h:5,6-h’]diquinoline], in the data set with CHIKV DRDE-07, the “Cell Viability” value was 63% and the CPE entry was “++ (50-30% (++))”. The same compound had an MNTD with Vero cells (Table S1, Vero cells) of 50 µM. The compound also yielded an MNTD with Vero cells (setting [8]) of 50 µM.
`Clc1ncccc1Oc1cc2c(c3ncccc13)Oc1ncccc1O2` [DCR 3, 7-[(2-chloropridin-3-yl)oxy]-5,12-dioxa-1,11-diazatetraphene]: in the data set on CHIKV DRDE-07, the “Cell Viability” value is given as 69.9% and the CPE result is “++ (50-30% (++))”. This compound also had an MNTD in the data set with Vero cells (Table S1, Vero cells) of 50 µM. In the data set with Vero cells (setting [8]), this compound displayed an MNTD of 50 µM.
`Nc1nc(N)c2ccccc2n1` [DCR 134, Quinazoline-2,4-diamine]: in the data set on CHIKV DRDE-07, the “Cell Viability” value came to 75.9% and the CPE entry is listed as “+ (<30%)”. Further, in the data set with Vero cells (Table S1, Vero cells), the MNTD was found to be 150 µM. Also, in the data set on Vero cells (setting [8]), the MNTD was 150 µM.
Take `Nc1nc(N)c2c(F)cccc2n1` [DCR 135, 5-fluoro-quinazoline-2,4-diamine]: the “Cell Viability” value with CHIKV DRDE-07 was 61%. The CPE result in the data set on CHIKV DRDE-07 is given as “++ (50-30% (++))”. Further, the MNTD stood at 250 µM in the data set on Vero cells (Table S1, Vero cells) and 250 µM in the data set on Vero cells (setting [8]).
As for `Nc1nc(N)c2ccc(F)cc2n1` [DCR 136, 7-fluoro-quinazoline-2,4-diamine], in the data set on CHIKV DRDE-07, the “Cell Viability” value is given as 54% and the CPE result is “++ (50-30% (++))”. The compound also showed an MNTD in the data set on Vero cells (Table S1, Vero cells) of 250 µM. In addition, the MNTD in the data set with Vero cells (setting [8]) is 250 µM.
Take `Nc1nc(N)c2cc(F)ccc2n1` [DCR 137, 6-fluoro-quinazoline-2,4-diamine]: the viability at 300 µM in the data set with CHIKV [1] (2 h, read-out: cell viability, post-treatment) is > 95%; in the data set on CHIKV [1] (read-out: cell viability, pre-treatment), 15%; in the data set on CHIKV [1] (read-out: cell viability, simultaneous treatment), 29%. The “effect of pre-treatment or simultaneous treatment on viral infection” value with CHIKV [1] (pre-treatment 24 h or simultaneous 1 h, CHIKV MOI 1) is recorded as “no inhibitory effects”. Moreover, the CHIKV titer in the data set with CHIKV [2] (24 hpi, virus control 2.8 × 10^6) was 1.8 × 10^2 PFU/mL; in the data set on CHIKV [2] (48 hpi, virus control 9.1 × 10^8), 1.9 × 10^5 PFU/mL. Also, the CPE result in the data set on CHIKV DRDE-07 is recorded as “+ (<30%)”. In addition, the “viral fluorescence (immunofluorescence)” value in the data set on CHIKV [3] (300 µM, CHIKV MOI 0.1, 36 hpi) is reported as “complete abrogation of viral fluorescence”. In addition, in the data set with CHIKV [3] (CHIKV, immunofluorescence, ribavirin positive control), the “protection compared to ribavirin” value is recorded as “higher protection”. Besides, the RRV titer in the data set on RRV T48 strain [4] (24 hpi, untreated 3.0 × 10^6) is 1.1 × 10^2 PFU/mL; in the data set on RRV T48 strain [4] (48 hpi, untreated 1.2 × 10^8) it was 1.7 × 10^5 PFU/mL. The figures for the “percent reduction in virus titer” value with RRV T48 strain [4] (24 hpi) and with RRV T48 strain [4] (48 hpi) were 99.99% and 99.85%, respectively. For the same compound, the MNTD in the data set with Vero cells (Table S1, Vero cells) came out at 300 µM; with Vero cells (setting [8]) it was 300 µM. For the same compound, the MNTD value in the data set with Vero cells (Vero cells) is > 300 μM and ~ 312 μM. For the same compound, in the data set with Vero cells (Vero cells, 312.5 µM, 48 hpi, microscopy), the “cytotoxicity (cell morphology)” value is “No significant cytotoxicity”. In data set [5] (Vero cells, MTT), the CC50 at 72 h is > 1100 µM. The viability at 72 h in data set [5] (uninfected Vero cells at MNTD, read-out: cell viability at MNTD) was ~90%. Besides, the “cytopathic effect (microscopy)” value with CHIKV [6] (150 and 300 µM, CHIKV-infected Vero cells) is “delayed and dose-dependent CPE”. Also, the EC50 in the data set on CHIKV [6] (Chikungunya virus, Vero, CHIKV replication in Vero cells, post-treatment, MTT at 48 hpi) is ~37 µM. The CHIKV-E2 protein expression entry in the data set on CHIKV-E2 protein is “significant decrease”. Also, the “green fluorescence (RRV immunofluorescence)” value in the data set on RRV T48 strain [7] is listed as “barely detectable”.
For `Nc1nc(N)c2cc(F)c(F)cc2n1` [DCR 138, 6,7-difluoro-quinazoline-2,4-diamine], in the data set with CHIKV DRDE-07, the “Cell Viability” value is 51% and the CPE result was “++ (50-30% (++))”. In the data set with Vero cells (Table S1, Vero cells), this compound returned an MNTD of 250 µM. In addition, in the data set with Vero cells (setting [8]), the MNTD was found to be 250 µM.
On to `COc1cccc2nc(N)nc(N)c12` [DCR 139, 5-methoxy-quinazoline-2,4-diamine], for which the “Cell Viability” value in the data set with CHIKV DRDE-07 turned out to be 57%. Moreover, the CPE result in the data set on CHIKV DRDE-07 was “++ (50-30% (++))”. Further, the MNTD is 250 µM with Vero cells (Table S1, Vero cells) and 250 µM with Vero cells (setting [8]).
Take “(E)-N'-(5-bromo-2-methoxybenzylidene)isonicotinohydrazide [DCR39]”: in the data set on CHIKV DRDE-07, the “% Cell viability” value stood at 3.81% and the CPE entry is “++++ (>60% (++++))”. This compound showed an MNTD in the data set on Vero cells (Table S1, Vero cells) of 31.25 µM.
In the same order, the values of “(E)-N'-(5-bromo-2-methoxybenzylidene)nicotinohydrazide [DCR24]” are 25.23%, “++++ (>60% (++++))” and 15.6 µM.

The values above are taken from PMC10674894 (Viruses, 2023).
